Laboratory results as given in the kinase profiling compilation of Christmann-Franck et al. (2016).

Tests used:
Assay in all cases: radiometric filter-binding kinase assay
[1] = biological target: CDK2 CCNA2 (human) (UniProt P20248+P24941)
[2] = biological target: PAK4 (human) (UniProt O96013)
[3] = biological target: MAP3K7 TAB1 (human) (UniProt Q15750+O43318)
[4] = biological target: PKN2 (human) (UniProt Q16513)
[5] = biological target: EPHB1 (human) (UniProt P54762)
[6] = biological target: SRC (human) (UniProt P12931)
[7] = biological target: EPHB3 (human) (UniProt P54753)
[8] = biological target: MYLK (human) (UniProt Q15746)
[9] = test system: AKT1 (human), P31749 [S473D]
[10] = biological target: IKBKB (human) (UniProt O14920)
[11] = biological target: CSK (human) (UniProt P41240)
[12] = test system: PAK2 (human), Q13177 [T402E]
[13] = biological target: TTK (human) (UniProt P33981)
[14] = biological target: MARK2 (human) (UniProt Q7KZI7)
[15] = test system: LCK (mouse); settings: accession and sequence are those of the human protein
[16] = biological target: RPS6KA3 KD1 KD2 (human) (UniProt P51812)
[17] = biological target: EPHA2 (human) (UniProt P29317)
[18] = biological target: CHEK2 (human) (UniProt O96017)
[19] = biological target: TBK1 (human) (UniProt Q9UHD2)
[20] = biological target: NUAK1 (human) (UniProt O60285)
[21] = biological target: EPHB2 (human) (UniProt P29323)
[22] = biological target: AURKB (human) (UniProt Q96GD4)
[23] = biological target: TAOK1 (human) (UniProt Q7L7X3)
[24] = biological target: MAP3K11 (human) (UniProt Q16584)
[25] = biological target: PAK6 (human) (UniProt Q9NQU5)
[26] = biological target: MAPK10 (human) (UniProt P53779)
[27] = biological target: EPHA4 (human) (UniProt P54764)
[28] = biological target: MAPK8 (human) (UniProt P45983)
[29] = biological target: GCK (human) (UniProt Q12851)
[30] = biological target: MINK1 (human) (UniProt Q8N4C8)
[31] = biological target: CHEK1 (human) (UniProt O14757)
[32] = biological target: DYRK3 (human) (UniProt O43781)
[33] = test system: ROCK2 (rat); settings: accession and sequence are those of the human protein
[34] = biological target: MAP2K1 (human) (UniProt Q02750)
[35] = biological target: CaMK1 (human) (UniProt Q14012)
[36] = biological target: MST4 (human) (UniProt Q9P289)

EPHA2 (human), sequence (P29317 whole entry, looked up): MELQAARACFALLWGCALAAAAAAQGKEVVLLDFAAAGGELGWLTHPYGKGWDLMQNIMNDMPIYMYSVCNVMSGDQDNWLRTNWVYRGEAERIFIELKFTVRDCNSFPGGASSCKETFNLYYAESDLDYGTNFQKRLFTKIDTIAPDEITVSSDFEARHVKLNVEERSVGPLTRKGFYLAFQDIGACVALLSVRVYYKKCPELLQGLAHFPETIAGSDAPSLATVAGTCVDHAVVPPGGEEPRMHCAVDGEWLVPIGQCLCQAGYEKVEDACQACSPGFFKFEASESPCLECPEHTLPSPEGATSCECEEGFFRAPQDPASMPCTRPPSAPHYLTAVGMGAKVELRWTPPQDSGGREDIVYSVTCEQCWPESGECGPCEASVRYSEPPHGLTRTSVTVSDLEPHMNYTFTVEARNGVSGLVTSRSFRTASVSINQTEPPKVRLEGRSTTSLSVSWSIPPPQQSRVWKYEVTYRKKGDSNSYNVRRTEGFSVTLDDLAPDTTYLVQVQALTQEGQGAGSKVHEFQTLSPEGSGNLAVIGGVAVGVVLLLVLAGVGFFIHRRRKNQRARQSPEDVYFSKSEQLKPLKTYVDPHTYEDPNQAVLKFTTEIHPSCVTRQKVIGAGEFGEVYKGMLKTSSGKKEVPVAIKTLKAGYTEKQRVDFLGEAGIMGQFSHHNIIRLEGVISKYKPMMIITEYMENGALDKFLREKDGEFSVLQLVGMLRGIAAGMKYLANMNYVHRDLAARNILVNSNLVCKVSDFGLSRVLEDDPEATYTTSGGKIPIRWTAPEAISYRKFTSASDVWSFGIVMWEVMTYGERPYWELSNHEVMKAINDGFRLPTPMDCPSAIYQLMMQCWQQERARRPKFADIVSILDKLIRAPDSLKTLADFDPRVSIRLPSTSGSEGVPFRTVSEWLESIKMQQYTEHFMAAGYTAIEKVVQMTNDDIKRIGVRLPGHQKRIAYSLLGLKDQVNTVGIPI
MAPK10 (human), sequence (P53779 whole entry, looked up): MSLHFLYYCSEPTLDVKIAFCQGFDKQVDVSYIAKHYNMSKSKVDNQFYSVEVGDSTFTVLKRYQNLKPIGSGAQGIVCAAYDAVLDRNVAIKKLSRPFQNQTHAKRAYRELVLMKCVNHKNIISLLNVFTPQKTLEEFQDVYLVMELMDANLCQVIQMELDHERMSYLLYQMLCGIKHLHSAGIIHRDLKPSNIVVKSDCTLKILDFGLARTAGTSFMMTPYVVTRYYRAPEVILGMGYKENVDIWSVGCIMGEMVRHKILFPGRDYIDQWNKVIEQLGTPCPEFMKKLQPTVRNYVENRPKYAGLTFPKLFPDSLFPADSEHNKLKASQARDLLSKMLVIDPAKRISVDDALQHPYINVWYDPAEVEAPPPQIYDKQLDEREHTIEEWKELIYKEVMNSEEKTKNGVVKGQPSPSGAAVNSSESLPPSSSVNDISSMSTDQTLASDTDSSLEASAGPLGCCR
SRC (human), sequence (P12931 whole entry, looked up): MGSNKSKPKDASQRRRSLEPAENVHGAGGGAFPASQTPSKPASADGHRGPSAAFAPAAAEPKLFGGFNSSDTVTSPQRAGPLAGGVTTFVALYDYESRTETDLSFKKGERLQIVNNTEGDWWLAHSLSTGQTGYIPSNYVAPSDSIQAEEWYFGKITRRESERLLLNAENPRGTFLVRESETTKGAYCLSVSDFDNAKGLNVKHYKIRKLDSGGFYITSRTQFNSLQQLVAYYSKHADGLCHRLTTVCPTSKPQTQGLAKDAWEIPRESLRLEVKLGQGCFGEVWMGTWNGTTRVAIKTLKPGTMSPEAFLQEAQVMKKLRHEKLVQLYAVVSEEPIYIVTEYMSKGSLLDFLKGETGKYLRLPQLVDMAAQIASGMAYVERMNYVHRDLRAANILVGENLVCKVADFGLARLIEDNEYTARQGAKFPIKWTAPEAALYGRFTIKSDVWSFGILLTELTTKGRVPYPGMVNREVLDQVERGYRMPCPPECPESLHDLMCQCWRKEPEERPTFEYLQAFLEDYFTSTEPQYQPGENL
PAK6 (human), sequence (Q9NQU5 whole entry, looked up): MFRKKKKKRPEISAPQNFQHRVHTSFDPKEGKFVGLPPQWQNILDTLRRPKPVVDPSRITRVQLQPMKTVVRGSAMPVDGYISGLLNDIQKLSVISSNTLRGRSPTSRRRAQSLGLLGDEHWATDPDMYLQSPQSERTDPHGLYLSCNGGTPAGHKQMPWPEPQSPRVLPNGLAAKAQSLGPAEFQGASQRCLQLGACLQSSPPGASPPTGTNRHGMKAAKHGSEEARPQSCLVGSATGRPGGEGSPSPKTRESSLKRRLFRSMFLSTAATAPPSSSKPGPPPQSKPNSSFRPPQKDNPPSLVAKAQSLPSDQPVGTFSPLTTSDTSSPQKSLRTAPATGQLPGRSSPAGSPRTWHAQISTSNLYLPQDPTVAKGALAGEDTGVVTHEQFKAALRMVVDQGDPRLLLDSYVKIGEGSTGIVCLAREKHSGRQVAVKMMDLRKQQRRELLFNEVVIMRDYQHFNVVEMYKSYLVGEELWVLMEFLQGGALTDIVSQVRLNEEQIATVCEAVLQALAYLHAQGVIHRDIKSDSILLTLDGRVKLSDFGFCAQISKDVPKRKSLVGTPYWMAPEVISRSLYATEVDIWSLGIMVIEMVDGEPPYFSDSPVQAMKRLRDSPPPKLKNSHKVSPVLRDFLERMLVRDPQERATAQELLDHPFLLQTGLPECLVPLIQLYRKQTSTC
DYRK3 (human), sequence (O43781 whole entry, looked up): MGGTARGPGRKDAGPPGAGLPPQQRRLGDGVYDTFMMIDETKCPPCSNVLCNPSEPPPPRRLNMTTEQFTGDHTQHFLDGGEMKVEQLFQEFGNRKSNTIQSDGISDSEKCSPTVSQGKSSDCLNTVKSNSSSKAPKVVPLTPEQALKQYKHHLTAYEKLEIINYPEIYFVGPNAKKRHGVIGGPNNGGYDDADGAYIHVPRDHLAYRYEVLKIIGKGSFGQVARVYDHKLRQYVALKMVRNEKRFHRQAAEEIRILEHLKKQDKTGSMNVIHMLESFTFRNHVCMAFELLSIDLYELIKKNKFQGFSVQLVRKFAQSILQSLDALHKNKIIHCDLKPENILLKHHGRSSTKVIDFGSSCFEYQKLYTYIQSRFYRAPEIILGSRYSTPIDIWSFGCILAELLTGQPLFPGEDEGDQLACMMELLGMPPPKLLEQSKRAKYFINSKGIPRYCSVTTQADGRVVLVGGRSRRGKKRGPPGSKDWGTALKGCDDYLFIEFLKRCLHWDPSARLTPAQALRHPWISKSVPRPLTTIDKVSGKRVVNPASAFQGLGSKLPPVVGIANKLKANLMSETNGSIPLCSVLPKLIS
CHEK1 (human), sequence (O14757 whole entry, looked up): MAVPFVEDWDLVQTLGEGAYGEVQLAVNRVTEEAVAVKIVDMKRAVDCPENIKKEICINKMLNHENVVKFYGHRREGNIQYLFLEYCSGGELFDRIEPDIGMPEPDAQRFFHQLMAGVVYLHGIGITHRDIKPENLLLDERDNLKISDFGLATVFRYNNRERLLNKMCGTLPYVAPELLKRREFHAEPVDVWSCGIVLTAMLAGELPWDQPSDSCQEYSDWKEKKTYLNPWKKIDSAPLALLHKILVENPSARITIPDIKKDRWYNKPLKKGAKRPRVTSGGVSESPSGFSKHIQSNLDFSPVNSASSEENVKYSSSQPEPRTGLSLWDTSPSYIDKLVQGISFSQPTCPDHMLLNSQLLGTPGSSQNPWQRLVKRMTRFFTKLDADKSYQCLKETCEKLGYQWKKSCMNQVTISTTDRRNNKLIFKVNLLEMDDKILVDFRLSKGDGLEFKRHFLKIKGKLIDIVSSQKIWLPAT
AKT1 (human), P31749 [S473D], sequence (P31749 whole entry S473D, looked up): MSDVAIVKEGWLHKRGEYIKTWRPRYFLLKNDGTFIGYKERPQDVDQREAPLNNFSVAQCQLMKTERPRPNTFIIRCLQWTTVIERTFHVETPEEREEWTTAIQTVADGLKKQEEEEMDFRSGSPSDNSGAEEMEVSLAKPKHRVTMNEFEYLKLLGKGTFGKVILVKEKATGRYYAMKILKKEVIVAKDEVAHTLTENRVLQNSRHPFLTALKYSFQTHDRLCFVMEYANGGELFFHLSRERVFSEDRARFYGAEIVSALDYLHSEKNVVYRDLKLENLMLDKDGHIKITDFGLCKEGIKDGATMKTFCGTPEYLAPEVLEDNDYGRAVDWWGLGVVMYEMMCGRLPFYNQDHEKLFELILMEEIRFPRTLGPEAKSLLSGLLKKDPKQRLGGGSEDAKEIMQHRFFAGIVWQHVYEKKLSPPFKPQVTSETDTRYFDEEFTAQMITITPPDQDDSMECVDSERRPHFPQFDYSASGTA
AURKB (human), sequence (Q96GD4 whole entry, looked up): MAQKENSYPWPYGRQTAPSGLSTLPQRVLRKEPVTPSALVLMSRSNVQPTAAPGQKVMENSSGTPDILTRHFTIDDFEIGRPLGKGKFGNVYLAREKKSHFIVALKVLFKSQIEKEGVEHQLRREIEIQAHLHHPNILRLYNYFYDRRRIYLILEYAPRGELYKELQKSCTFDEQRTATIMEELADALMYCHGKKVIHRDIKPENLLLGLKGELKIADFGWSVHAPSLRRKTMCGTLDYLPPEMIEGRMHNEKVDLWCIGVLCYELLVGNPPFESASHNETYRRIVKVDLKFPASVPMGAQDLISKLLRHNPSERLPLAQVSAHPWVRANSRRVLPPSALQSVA
CaMK1 (human), sequence (Q14012 whole entry, looked up): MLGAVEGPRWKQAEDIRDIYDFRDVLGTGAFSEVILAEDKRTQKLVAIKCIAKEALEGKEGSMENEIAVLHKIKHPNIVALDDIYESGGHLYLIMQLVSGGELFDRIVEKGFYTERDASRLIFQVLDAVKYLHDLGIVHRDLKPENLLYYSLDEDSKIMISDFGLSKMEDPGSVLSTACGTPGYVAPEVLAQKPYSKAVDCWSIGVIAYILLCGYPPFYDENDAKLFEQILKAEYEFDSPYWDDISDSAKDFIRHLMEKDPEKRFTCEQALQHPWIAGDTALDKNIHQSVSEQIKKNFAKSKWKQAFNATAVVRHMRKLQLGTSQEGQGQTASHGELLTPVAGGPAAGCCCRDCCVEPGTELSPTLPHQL

- residual activity ([1]; compound 10.0 µM): 100%
- residual activity ([1]; compound 50.0 µM): 84%
- residual activity ([1]; compound 100.0 µM): 121%
- residual activity ([2]; compound 10.0 µM): 52%
- residual activity ([2]; compound 50.0 µM): 38%
- residual activity ([2]; compound 100.0 µM): 41%
- residual activity ([3]; compound 10.0 µM): 83%
- residual activity ([3]; compound 100.0 µM): 72%
- residual activity ([4]; compound 10.0 µM): 85%
- residual activity ([4]; compound 50.0 µM): 85%
- residual activity ([4]; compound 100.0 µM): 59%
- residual activity ([5]; compound 10.0 µM): 110%
- residual activity ([5]; compound 100.0 µM): 97%
- residual activity ([6]; compound 10.0 µM): 44%
- residual activity ([6]; compound 50.0 µM): 65%
- residual activity ([6]; compound 100.0 µM): 10%
- residual activity ([7]; compound 10.0 µM): 81%
- residual activity ([7]; compound 100.0 µM): 55%
- residual activity ([8]; compound 10.0 µM): 76%
- residual activity ([8]; compound 50.0 µM): 39%
- residual activity ([8]; compound 100.0 µM): 20%
- residual activity ([9]; compound 10.0 µM): 94%
- residual activity ([9]; compound 50.0 µM): 62%
- residual activity ([9]; compound 100.0 µM): 78%
- residual activity ([10]; compound 10.0 µM): 86%
- residual activity ([10]; compound 50.0 µM): 60%
- residual activity ([10]; compound 100.0 µM): 39%
- residual activity ([11]; compound 10.0 µM): 79%
- residual activity ([11]; compound 50.0 µM): 46%
- residual activity ([11]; compound 100.0 µM): 82%
- residual activity ([12]; compound 10.0 µM): 94%
- residual activity ([12]; compound 100.0 µM): 63%
- residual activity ([13]; compound 10.0 µM): 76%
- residual activity ([13]; compound 100.0 µM): 48%
- residual activity ([14]; compound 10.0 µM): 64%
- residual activity ([14]; compound 100.0 µM): 49%
- residual activity ([15]; compound 10.0 µM): 88%
- residual activity ([15]; compound 50.0 µM): 58%
- residual activity ([15]; compound 100.0 µM): 58%
- residual activity ([16]; compound 10.0 µM): 74%
- residual activity ([16]; compound 50.0 µM): 27%
- residual activity ([16]; compound 100.0 µM): 13%
- residual activity ([17]; compound 10.0 µM): 82%
- residual activity ([17]; compound 50.0 µM): 64%
- residual activity ([17]; compound 100.0 µM): 40%
- residual activity ([18]; compound 10.0 µM): 79%
- residual activity ([18]; compound 50.0 µM): 52%
- residual activity ([18]; compound 100.0 µM): 33%
- residual activity ([19]; compound 10.0 µM): 67%
- residual activity ([19]; compound 50.0 µM): 55%
- residual activity ([19]; compound 100.0 µM): 29%
- residual activity ([20]; compound 10.0 µM): 61%
- residual activity ([20]; compound 100.0 µM): 10%
- residual activity ([21]; compound 10.0 µM): 93%
- residual activity ([21]; compound 100.0 µM): 13%
- residual activity ([22]; compound 10.0 µM): 53%
- residual activity ([22]; compound 50.0 µM): 25%
- residual activity ([22]; compound 100.0 µM): 22%
- residual activity ([23]; compound 10.0 µM): 83%
- residual activity ([23]; compound 100.0 µM): 18%
- residual activity ([24]; compound 10.0 µM): 43%
- residual activity ([24]; compound 100.0 µM): 4%
- residual activity ([25]; compound 10.0 µM): 69%
- residual activity ([25]; compound 50.0 µM): 92%
- residual activity ([25]; compound 100.0 µM): 82%
- residual activity ([26]; compound 10.0 µM): 75%
- residual activity ([26]; compound 50.0 µM): 70%
- residual activity ([26]; compound 100.0 µM): 62%
- residual activity ([27]; compound 10.0 µM): 93%
- residual activity ([27]; compound 100.0 µM): 64%
- residual activity ([28]; compound 10.0 µM): 99%
- residual activity ([28]; compound 50.0 µM): 102%
- residual activity ([28]; compound 100.0 µM): 93%
- residual activity ([29]; compound 10.0 µM): 76%
- residual activity ([29]; compound 100.0 µM): 14%
- residual activity ([30]; compound 10.0 µM): 65%
- residual activity ([30]; compound 100.0 µM): 5%
- residual activity ([31]; compound 10.0 µM): 69%
- residual activity ([31]; compound 50.0 µM): 98%
- residual activity ([31]; compound 100.0 µM): 43%
- residual activity ([32]; compound 10.0 µM): 54%
- residual activity ([32]; compound 50.0 µM): 47%
- residual activity ([32]; compound 100.0 µM): 6%
- residual activity ([33]; compound 10.0 µM): 91%
- residual activity ([33]; compound 50.0 µM): 49%
- residual activity ([33]; compound 100.0 µM): 75%
- residual activity ([34]; compound 10.0 µM): 79%
- residual activity ([34]; compound 50.0 µM): 27%
- residual activity ([34]; compound 100.0 µM): 29%
- residual activity ([35]; compound 10.0 µM): 68%
- residual activity ([35]; compound 50.0 µM): 45%
- residual activity ([35]; compound 100.0 µM): 7%
- residual activity ([36]; compound 10.0 µM): 74%
- residual activity ([36]; compound 50.0 µM): 57%
- residual activity ([36]; compound 100.0 µM): 14%
Structure (SMILES): N#Cc1c(O)c2c(-c3ccc(-c4ccccc4O)cc3)csc2[nH]c1=O
